Structures are written as SMILES. Bounds are passed on as bounds.

For 91 compounds, IC50 results are on record in ChEMBL document CHEMBL3882725, “Indazole derivatives as JNK inhibitors and compositions and methods related thereto” (2002).

This experiment deals with Mitogen-activated protein kinase 9 (Homo sapiens, UniProt P45984). Nature of the experiment: Inhibition of His6-tagged JNK2 (unknown origin) assessed as reduction in c-Jun phosphorylation using GST-c-Jun (1 to 79 residues) and [gamma32P]ATP incubated for 1 hr by scintillation counting assay.
Sequence of Mitogen-activated protein kinase 9 (P45984 whole entry, the tested form may be a part): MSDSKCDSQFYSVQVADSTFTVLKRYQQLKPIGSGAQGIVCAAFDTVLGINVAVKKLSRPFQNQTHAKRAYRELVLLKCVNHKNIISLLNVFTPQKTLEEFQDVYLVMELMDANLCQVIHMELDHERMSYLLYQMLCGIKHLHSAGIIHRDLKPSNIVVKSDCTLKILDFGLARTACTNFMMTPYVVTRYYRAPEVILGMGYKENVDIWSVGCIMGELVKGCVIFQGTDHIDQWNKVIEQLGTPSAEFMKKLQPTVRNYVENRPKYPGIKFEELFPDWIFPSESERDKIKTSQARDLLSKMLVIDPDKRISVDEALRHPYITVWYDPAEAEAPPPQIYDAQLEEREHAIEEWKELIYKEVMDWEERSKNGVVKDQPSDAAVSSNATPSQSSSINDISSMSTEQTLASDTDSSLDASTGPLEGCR

In general, IC50 refers to the concentration at which inhibition is half-maximal. With `Cc1ccc(-c2n[nH]c3ccc(-c4nnc[nH]4)cc23)cc1`, the half-maximal inhibitory concentration (IC50) fell in the range of 1 to 10 µM.
As for `COc1cccc(-c2n[nH]c3ccc(-c4nnn[nH]4)cc23)c1`, the concentration for half-maximal inhibition (IC50) was 0.5 to 10 µM.
Consider `O=C(NCCCN1CCOCC1)c1ccc2[nH]nc(-c3ccc(F)cc3)c2c1`, for which the 50% inhibitory concentration (IC50) is ≤ 10 µM.
Turning to `CC(=O)O[C@@H](C)C(=O)Nc1cccc(-c2n[nH]c3ccc(C(N)=O)cc23)c1`, the IC50 was 0.5 to 10 µM.
In the case of `O=C(CC1CCCCC1)Nc1cccc(-c2n[nH]c3ccc(-c4nc[nH]n4)cc23)c1`, the 50% inhibitory concentration (IC50) is 0.5 to 10 µM.
Take `O=C(Nc1cccc(-c2n[nH]c3ccc(-c4nc[nH]n4)cc23)c1)C(=O)c1ccco1`: the IC50 is 1 to 10 µM.
The figure for `FC(F)(F)c1ccc2[nH]nc(-c3ccccc3)c2c1` is ≤ 10 µM; for `CN(C)Cc1nc(-c2ccc3[nH]nc(-c4cccc(NC(=O)[C@H](O)c5ccccc5)c4)c3c2)n[nH]1` it is 0.5 to 10 µM.
Regarding `Nc1cccc(-c2n[nH]c3ccc(-c4nnc[nH]4)cc23)c1`, the half-inhibitory concentration (IC50) lay within 1 to 10 µM.
With `CC(C)(NC(=O)c1cccc(-c2n[nH]c3ccc(-c4ncn[nH]4)cc23)c1)c1ccccc1`, the half-inhibitory concentration (IC50) fell in the range of 0.5 to 10 µM.
Regarding `CC(C)(C)CC(=O)Nc1cccc(-c2n[nH]c3ccc(-c4nc[nH]n4)cc23)c1`, the IC50 was in the range of 0.5 to 10 µM.
Take `Fc1ccc(-c2n[nH]c3ccc(NCc4cccnc4)cc23)cc1`: the IC50 is ≤ 10 µM.
As to `COCCC(=O)Nc1cccc(-c2n[nH]c3ccc(-c4nn[nH]n4)cc23)c1`, the half-inhibitory concentration (IC50) was in the range of 0.5 to 10 µM.
For the compound `COc1ccc2cc(-c3n[nH]c4ccc(-c5nc[nH]n5)cc34)ccc2c1`, the IC50 lay in the range of 1 to 10 µM.
The figure for `CC(O)C(=O)Nc1cccc(-c2n[nH]c3ccc(-c4nc[nH]n4)cc23)c1` (stereo unspecified) is 0.5 to 10 µM; for `NC(=O)c1ccc2[nH]nc(-c3cccc(NC(=O)Cc4ccsc4)c3)c2c1` it is 1 to 10 µM.
The value for `O=[N+]([O-])c1ccc2[nH]nc(-c3cccc(C(F)(F)F)c3)c2c1` was ≤ 10 µM; that for `CN(C)CCCNC(=O)c1ccc2[nH]nc(-c3cc4ccccc4o3)c2c1` was 1 to 10 µM.
With `Fc1ccc(-c2n[nH]c3ccc(-c4nc(-c5ccco5)n[nH]4)cc23)cc1`, the IC50 fell in the range of 1 to 10 µM.
The figure for `O=C(O)c1ccc2[nH]nc(-c3cc4ccccc4s3)c2c1` is 1 to 10 µM.
Consider `NC(=O)c1ccc2[nH]nc(-c3cccc(C(=O)NCCN4CCCCC4)c3)c2c1`, for which the IC50 was 1 to 10 µM.
For the compound `CC(C)(C)OC(=O)CCNC(=O)c1ccc2[nH]nc(-c3ccc(F)cc3)c2c1`, the IC50 was ≤ 10 µM.
In the case of `Nc1ccc(-c2nnc(-c3ccc4[nH]nc(-c5ccc(F)cc5)c4c3)[nH]2)cc1`, the IC50 lay within 1 to 10 µM.
Take `O=C(Nc1cccc(-c2n[nH]c3ccc(-c4nc[nH]n4)cc23)c1)C(=O)c1ccccc1`: the IC50 was 1 to 10 µM.
In the case of `NC(=O)c1ccc2[nH]nc(-c3ccc(O)cc3)c2c1`, the IC50 was in the range of 1 to 10 µM.
`O=C(O)CCNC(=O)c1ccc2[nH]nc(-c3ccc(F)cc3)c2c1`: the half-maximal inhibitory concentration (IC50) lay within 1 to 10 µM.
`c1cc(OCCN2CCOCC2)cc(-c2n[nH]c3ccc(-c4ncn[nH]4)cc23)c1`: the IC50 lay in the range of 1 to 10 µM.
Take `CC(C)(C)CNC(=O)c1cccc(-c2n[nH]c3ccc(-c4ncn[nH]4)cc23)c1`: the IC50 is 1 to 10 µM.
For the compound `NC(=O)c1ccc2[nH]nc(-c3cccc(NC(=O)Cc4ccc(Cl)cc4)c3)c2c1`, the IC50 was in the range of 1 to 10 µM.
The value for `CC(Oc1ccccc1)C(=O)Nc1cccc(-c2n[nH]c3ccc(-c4nc[nH]n4)cc23)c1` (stereo unspecified) was 0.5 to 10 µM; that for `CC(C)NC(=O)c1ccc2[nH]nc(-c3cc4ccccc4o3)c2c1` was 1 to 10 µM; that for `NC(=O)c1ccc2[nH]nc(-c3cccc(NC(=O)CCN4CCCCC4)c3)c2c1` was 1 to 10 µM.
On to `c1ccc2oc(-c3n[nH]c4ccc(-c5nnn[nH]5)cc34)cc2c1`, for which the IC50 fell in the range of 0.5 to 10 µM.
The value for `CN(C)CCOc1cccc(-c2n[nH]c3ccc(-c4ncn[nH]4)cc23)c1` was 1 to 10 µM.
The figure for `CN(C)Cc1n[nH]c(-c2ccc3[nH]nc(-c4cccc(C(=O)Nc5ccccc5)c4)c3c2)n1` is 0.5 to 10 µM; for `CCOC(=O)C1CCN(C(=O)c2ccc3[nH]nc(-c4ccc(F)cc4)c3c2)CC1` it is ≤ 10 µM; for `Nc1cccc(C(=O)Nc2ccc3[nH]nc(-c4ccccc4)c3c2)c1` it is 1 to 10 µM.
The figure for `CN(C)CCOc1ccc(-c2n[nH]c3ccc(-c4ncn[nH]4)cc23)cc1` is 1 to 10 µM; for `c1ccc(COc2ccc3[nH]nc(-c4ccccc4)c3c2)cc1` it is ≤ 10 µM.
As to `C(=C\c1n[nH]c2ccc(-c3nc[nH]n3)cc12)/c1ccccc1`, the IC50 is 1 to 10 µM.
For `COc1ccc(-c2n[nH]c3ccc(C(N)=O)cc23)cc1OC`, the half-maximal inhibitory concentration (IC50) was 1 to 10 µM.
Regarding `O=C(O)c1ccc(CCc2ccc3[nH]nc(-c4ccc(F)cc4)c3c2)cc1`, the IC50 was ≤ 10 µM.
Turning to `O=C(NCCC1CCN(Cc2ccccc2)CC1)c1cccc(-c2n[nH]c3ccc(-c4nc[nH]n4)cc23)c1`, the IC50 is 0.5 to 10 µM.
In the case of `CN(C)Cc1nc(-c2ccc3[nH]nc(-c4cccc(NC(=O)c5cccnc5)c4)c3c2)n[nH]1`, the half-maximal inhibitory concentration (IC50) fell in the range of 0.5 to 10 µM.
As to `O=c1[nH]c(-c2ccc3[nH]nc(-c4ccc(F)cc4)c3c2)no1`, the 50% inhibitory concentration (IC50) is 0.5 to 10 µM.
Take `O=C(O)c1ccc(CNC(=O)c2ccc3[nH]nc(-c4ccc(F)cc4)c3c2)cc1`: the IC50 was in the range of 1 to 10 µM.
With `O=C(O)CNC(=O)c1ccc2[nH]nc(-c3ccc(F)cc3)c2c1`, the half-maximal inhibitory concentration (IC50) fell in the range of 1 to 10 µM.
Take `CN(C)c1ccc(-c2n[nH]c3ccc(-c4ncn[nH]4)cc23)cc1`: the concentration for half-maximal inhibition (IC50) is 1 to 10 µM.
`O=C(O)c1cccc(-c2n[nH]c3ccc(-c4nc[nH]n4)cc23)c1`: the IC50 fell in the range of 1 to 10 µM.
The value for `O=C(O)Cc1nnc(-c2ccc3[nH]nc(-c4ccc(F)cc4)c3c2)[nH]1` was 1 to 10 µM.
`COC(=O)c1ccc2[nH]nc(-c3cc4ccccc4s3)c2c1`: the IC50 was ≤ 10 µM.
Turning to `Fc1ccc(-c2n[nH]c3ccc(-c4nnc(-c5cccnc5)[nH]4)cc23)cc1`, the IC50 was in the range of 1 to 10 µM.
Take `Cc1n[nH]c(-c2ccc3[nH]nc(-c4ccc(F)cc4)c3c2)n1`: the IC50 lay in the range of 1 to 10 µM.
Take `O=C(NC1CC1)c1cccc(-c2n[nH]c3ccc(-c4nc[nH]n4)cc23)c1`: the concentration for half-maximal inhibition (IC50) was 0.5 to 10 µM.
`CCCCC(=O)Nc1cccc(-c2n[nH]c3ccc(-c4nc[nH]n4)cc23)c1`: the IC50 was in the range of 0.5 to 10 µM.
Take `CN(C)CCCOc1cccc(-c2n[nH]c3ccc(-c4ncn[nH]4)cc23)c1`: the IC50 was 1 to 10 µM.
For the compound `O=C(Nc1cccc(-c2n[nH]c3ccc(-c4nc[nH]n4)cc23)c1)C(=O)c1c[nH]c2ccccc12`, the concentration for half-maximal inhibition (IC50) is 1 to 10 µM.
In the case of `CN(C)Cc1n[nH]c(-c2ccc3[nH]nc(-c4cccc(C(=O)NC5CCC5)c4)c3c2)n1`, the IC50 was in the range of 0.5 to 10 µM.
In the case of `CC(C)c1cccc(-c2n[nH]c3ccc(C(N)=O)cc23)c1`, the IC50 was ≤ 10 µM.
For the compound `COCC(=O)Nc1cccc(-c2n[nH]c3ccc(C(N)=O)cc23)c1`, the IC50 was in the range of 1 to 10 µM.
In the case of `Cc1ccc(C(=O)Nc2cccc(-c3n[nH]c4ccc(-c5nc[nH]n5)cc34)c2)cc1`, the IC50 was 1 to 10 µM.
As for `O=C(O)c1ccc(NC(=O)c2ccc3[nH]nc(-c4ccc(F)cc4)c3c2)cc1`, the 50% inhibitory concentration (IC50) lay within 1 to 10 µM.
On to `NC(=O)c1ccc2[nH]nc(-c3cccc(NC(=O)Cc4ccncc4)c3)c2c1`, for which the IC50 fell in the range of 0.5 to 10 µM.
Take `Fc1ccc(-c2n[nH]c3ccc(-c4nc5ccccc5[nH]4)cc23)cc1`: the IC50 is ≤ 10 µM.
Regarding `CN(C)CCc1nc(-c2ccc3[nH]nc(-c4ccc(F)cc4)c3c2)n[nH]1`, the half-inhibitory concentration (IC50) fell in the range of 1 to 10 µM.
For the compound `Fc1ccc(-c2n[nH]c3ccc(NCc4ccncc4)cc23)cc1`, the 50% inhibitory concentration (IC50) lay within 1 to 10 µM.
As to `O=C(Cc1ccccc1)c1ccc2[nH]nc(-c3ccc(F)cc3)c2c1`, the IC50 was ≤ 10 µM.
Consider `CCOC(=O)CCc1ccc2[nH]nc(-c3ccc(F)cc3)c2c1`, for which the IC50 was ≤ 10 µM.
The value for `CN(C)CCOc1cccc(-c2n[nH]c3ccc(-c4nnn[nH]4)cc23)c1` was 1 to 10 µM; that for `O=C(Nc1ccc2[nH]nc(-c3ccc(F)cc3)c2c1)c1ccccc1` was 1 to 10 µM.
As to `O=C(Nc1ccccn1)c1ccc2[nH]nc(-c3ccc(F)cc3)c2c1`, the half-maximal inhibitory concentration (IC50) was ≤ 10 µM.
The value for `COc1ccc(-c2n[nH]c3ccc(C(N)=O)cc23)cc1` was 1 to 10 µM; that for `O=C(Nc1ccc2[nH]nc(-c3ccc(F)cc3)c2c1)N1CCOCC1` was ≤ 10 µM; that for `O=C(NCCOc1cccc(-c2n[nH]c3ccc(-c4ncn[nH]4)cc23)c1)OCc1ccccc1` was 1 to 10 µM.
As for `CCOC(=O)Cc1n[nH]c(-c2ccc3[nH]nc(-c4ccc(F)cc4)c3c2)n1`, the 50% inhibitory concentration (IC50) is 1 to 10 µM.
For the compound `CS(=O)(=O)c1ccc(-c2n[nH]c3ccc(-c4ncn[nH]4)cc23)cc1`, the 50% inhibitory concentration (IC50) lay within 1 to 10 µM.
In the case of `CN(C)CC(=O)Nc1cccc(-c2n[nH]c3ccc(-c4nc[nH]n4)cc23)c1`, the half-inhibitory concentration (IC50) lay within 0.5 to 10 µM.
The figure for `Fc1ccc(-c2n[nH]c3ccc(-c4n[nH]c(CN5CCCCC5)n4)cc23)cc1` is 1 to 10 µM; for `O=C(O)Cc1ccc(NC(=O)c2ccc3[nH]nc(-c4ccc(F)cc4)c3c2)cc1` it is 1 to 10 µM; for `CN(C)Cc1n[nH]c(-c2ccc3[nH]nc(-c4cccc(C(=O)NC5Cc6ccccc6C5)c4)c3c2)n1` it is 0.5 to 10 µM.
With `OC(Cc1ccccc1)c1ccc2[nH]nc(-c3ccc(F)cc3)c2c1` (stereo unspecified), the IC50 lay within 1 to 10 µM.
The value for `O=C(CCN1CCCCC1)Nc1cccc(-c2n[nH]c3ccc(-c4nn[nH]n4)cc23)c1` was 0.5 to 10 µM.
In the case of `COc1ccc(-c2n[nH]c3ccc([N+](=O)[O-])cc23)cc1OC`, the concentration for half-maximal inhibition (IC50) was ≤ 10 µM.
Regarding `COC(=O)c1cccc(C(=O)Nc2ccc3[nH]nc(-c4ccc(F)cc4)c3c2)c1`, the 50% inhibitory concentration (IC50) is ≤ 10 µM.
Turning to `O=C(O)CCCCNC(=O)c1ccc2[nH]nc(-c3ccc(F)cc3)c2c1`, the IC50 lay in the range of 1 to 10 µM.
The value for `O=C(Nc1ccc2[nH]nc(-c3ccc(F)cc3)c2c1)c1ccncc1` was 1 to 10 µM; that for `CN(C)Cc1nc(-c2ccc3[nH]nc(-c4cccc(C(=O)N[C@@H]5CCc6ccccc65)c4)c3c2)n[nH]1` was 0.5 to 10 µM.
The value for `c1ccc2oc(-c3n[nH]c4ccc(-c5nc[nH]n5)cc34)cc2c1` was 0.5 to 10 µM; that for `NC(=O)c1ccc2[nH]nc(-c3cccc(NC(=O)c4ccco4)c3)c2c1` was 0.5 to 10 µM.
The figure for `NC(=O)CCCNC(=O)c1ccc2[nH]nc(-c3ccc(F)cc3)c2c1` is 1 to 10 µM; for `O=C(O)CCCNC(=O)c1ccc2[nH]nc(-c3ccc(F)cc3)c2c1` it is 1 to 10 µM.
